Test results from patent US20170226139A1, “CRYSTALLINE SALTS OF (Z)-O-OCTADEC-9-EN-1-YL O,O-DIHYDROGEN PHOSPHOROTHIOATE” (priority 2013, published 2017).
In brackets after ≈: the same amount, converted by molar mass.

Key:
[1] = test system: female murine Animal Model of GI-ARS (TAI); assay: Survival after total abdominal irradiation (TAI), murine model of GI-ARS (UTHSC, 2010); type: in vivo; conditions: UTHSC 2010 (TAI), 0.1 mg/kg, start +24, 15.0 Gy, non-GLP
Protocol: These Animal Model studies were all conducted using partial body irradiation (PBI) with tibial bone marrow sparing except the earliest study which was performed with Total Abdominal Irradiation (TAI). The male Rhesus macaque model was developed by MacVittie. The female inbred murine PBI GI-ARS Animal Model was developed by the inventors. […] Differences in radiation sensitivity by gender in rodent species are well appreciated. We are not aware of PBI GI-ARS models other than these that meet criteria required to conduct a prospective, blinded, controlled, randomized study of efficacy.

Sprague-Dawley rats = assay: Single-dose (and 7-day) subcutaneous toxicity in rats; type: in vivo
Protocol: In the second phase of the study, animals (n=3/sex/group) received 25 mg/kg/day for seven consecutive days with injections being rotated between two sites. Parameters evaluated included clinical signs, body weight, and gross pathology.

[2] = test system: bone marrow cells (micronucleated PCEs); assay: In vivo rat bone marrow micronucleus assay; design: species or system Sprague-Dawley rats; conditions: 500 mg/kg single subcutaneous dose
male Sprague Dawley rats = assay: Central nervous system safety pharmacology, modified Irwin battery; type: in vivo; conditions: SC 1.81, 6.33 and 18.1 mg/kg; through 24 hours post-dose
Protocol: Four groups of male Sprague Dawley rats (n=8/group) were administered Rx100.lysine via subcutaneous injection at doses of 0 (10 mM histidine in sterile water for Injection, USP), 1.81, 6.33 and 18.1 mg/kg as the free acid. Animals were assessed pre-dose and through 24 hours post-dose for a variety of behavioral, neurological and autonomic responses using the modified Irwin battery of assessments. Dose formulation analyses were conducted and samples ranged from 99 to 104% of target. The only effect observed was a small (0.8 to 1.5 degrees C.) decrease in body temperature noted at 2-4 hours postdose.

[3] = Solubility measurement by gravimetric method in various solvents; type: physicochemical; conditions: for solubility: thermodynamic from solid
Protocol: In addition, the Rx100 L-Lysate salt was further characterized under abbreviated polymorph evaluation. First, the solubility measurement by gravimetric method was performed. Briefly, excess amount of solid was slurried in various solvents at ambient conditions and elevated temperature (50° C.) for minimum of 24 hours. The slurry was centrifuged using a temperature controlled centrifuge and the supernatant was used for gravimetric method. Table 15 presents the solubility data measured using this gravimetric method in various solvents for the L-Lysine salt. In cases where the solvent dissolved all of the solid, the value is shown as “greater than”.

[4] = 28-day repeat-dose subcutaneous toxicity and toxicokinetics in rats; type: in vivo, Sprague Dawley rats; conditions: Sprague Dawley, rat, plasma, subcutaneous; day 27; lowest dose of 1.81 mg/kg/day
Text: (§1) The remaining 5 rats per group in the control and high dose groups were then allowed a 14-day recovery period following treatment. Parameters evaluated included mortality (twice daily) clinical signs, food consumption (weekly), body weights (weekly), ophthalmoscopy (pre-dosing and prior to necropsy), hematology and clinical chemistry (Week 4), gross pathology, organ weights, and histopathology for all tissues in all dose groups. […] Ophthalmological examinations were unremarkable. […] Secondary changes included increased spleen weights and changes in other male reproductive organs. An increase in adrenal weights may have been related to a stress response. Macroscopic changes at necropsy included small testes (middle and high dose) and lesions apparent at the injection sites in some animals at all dose levels.
(§2) At recovery, only effects in male reproductive organs were evident at the highest dose, with skin lesions still evident in some animals at the highest dose. […] Cmax and AUC were generally higher at the end of the study compared to day 1. No gender differences were apparent.

Sprague Dawley rats = assay: as above; type: in vivo
Text: as §1, §2

Male Sprague-Dawley rats = assay: Gastrointestinal system safety pharmacology (charcoal transit, gastric emptying); type: in vivo
Protocol: Male Sprague-Dawley rats (n=6/group) were administered Rx100.lysine as a single oral (gavage) doses of 0 (10 mM histidine in sterile water for Injection, USP), 1.81, 6.33, and 18.1 mg/kg and monitored for gastrointestinal parameters of transit time and gastric emptying. A fifth group was treated with the positive control material morphine sulfate. Two hours after treatment, animals received an oral gavage dose of a charcoal suspension. Animals were then sacrificed 20 minutes. Parameters evaluated included gastrointestinal transit time and gastric emptying. […] No abnormal observations were recorded. […] It was concluded that there were no adverse effects on the gastrointestinal tract in rats at doses of 1.81 mg/kg (gastric emptying) or 6.33 mg/kg (transit time).

[5] = abbreviated polymorph screening
[6] = male, Sprague-Dawley, rat, in vivo, oral, 140 min

In the case of `CCCCCCCC/C=C\CCCCCCCCOP(O)(O)=S` [Rx100, (Z)—O-octadec-9-en-1-yl O,O-dihydrogen phosphorothioate], the “Survival, Rx100 arm (survivors/animals)” value ([1]; single cell under Day 10/Day ≧30) is reported as 10/14 and the “Survival advantage” value ([1]; single cell under Day 10/Day ≧30, vs vehicle) is reported as 42%.

In the case of `CCCCCCCC/C=C\CCCCCCCCOP(O)(O)=S` [Rx100.L-Lysine, (Z)—O-octadec-9-en-1-yl O,O-dihydrogen phosphorothioate], the necropsy findings (Sprague-Dawley rats; Phase I, rats given >50 mg/kg) is reported as “scabs were observed on the skin overlying the injection site”, the body weight (Sprague-Dawley rats; Phase I, single SC dose >50 mg/kg, first 3 days post-dose) is reported as “transient loss of body weight” and the skin findings (Sprague-Dawley rats; Phase I, single SC doses of >10 mg/kg, beginning several days post-dose) is reported as “produced scabs”. The body weight (Sprague-Dawley rats; Phase II, 25 mg/kg/day for seven consecutive days) was “transient body weight loss was followed by rebound”, the necropsy findings (Sprague-Dawley rats; Phase II, 25 mg/kg/day for seven days) was “small organ size was noted for the epididymis, prostate, seminal vesicle, and testis of all three males” and the dosing site findings (Sprague-Dawley rats; Phase II, 25 mg/kg/day for seven days, first two dosing sites) was “scabs developed with delayed onset”. For the same compound, the “Mean % MNPC (±SD) Male” value ([2]; harvest 24 hour) was 0.09%, the “Mean Ratio PCE:NCE (±SD) Male” value ([2]; harvest 24 hour) was 0.52 and the “Mean % MNPC (±SD) Male” value ([2]; harvest 48 hour) was 0.08%. The “other parameters of the modified Irwin battery” value (male Sprague Dawley rats) was “No other effects”, the “Solubility, gravimetric method” value ([3]; EtOH:water (v/v) [1:1], 25° C.) was “Gelled” and the “Solubility, gravimetric method” value ([3]; EtOH:water (v/v) [7:3], 25° C.) was “Gelled”. For the same compound, the “Solubility, gravimetric method” value ([3]; EtOH:water (v/v) [7:3], 50° C.) was “Gelled”, the “Solubility, gravimetric method” value ([3]; IPA:water (v/v) [7:3], 25° C.) was “Gelled” and the “Solubility, gravimetric method” value ([3]; IPA:water (v/v) [7:3], 50° C.) was “Gelled”. The “Solubility, gravimetric method” value ([3]; MeOH:water (v/v) [1:1], 25° C.) was “Gelled”, the “Solubility, gravimetric method” value ([3]; MeOH:water (v/v) [7:3], 50° C.) was “Gelled” and the “Solubility in most aqueous solvent systems” value [3, 5] was “moderate to high solubility”. The “Solubility in organic systems” value [3, 5] was “limited solubility”, the solubility ([3]; aqueous with cosolvent or surfactant or cyclodextrin, EtOH:water (v/v) [1:1], 50° C.) was > 68 mg/mL and the solubility ([3]; aqueous with cosolvent or surfactant or cyclodextrin, EtOH:water (v/v) [3:7], 25° C.) was > 40 mg/mL. The solubility ([3]; aqueous with cosolvent or surfactant or cyclodextrin, EtOH:water (v/v) [3:7], 50° C.) was > 84 mg/mL, the solubility ([3]; aqueous with cosolvent or surfactant or cyclodextrin, IPA:water (v/v) [1:1], 25° C.) was > 40 mg/mL and the solubility ([3]; aqueous with cosolvent or surfactant or cyclodextrin, IPA:water (v/v) [1:1], 50° C.) was > 86 mg/mL. The solubility ([3]; aqueous with cosolvent or surfactant or cyclodextrin, IPA:water (v/v) [3:7], 25° C.) was > 46 mg/mL, the solubility ([3]; aqueous with cosolvent or surfactant or cyclodextrin, IPA:water (v/v) [3:7], 50° C.) was > 70 mg/mL and the solubility ([3]; aqueous with cosolvent or surfactant or cyclodextrin, MeOH:water (v/v) [1:1], 50° C.) was > 80 mg/mL. For the same compound, the solubility ([3]; aqueous with cosolvent or surfactant or cyclodextrin, MeOH:water (v/v) [3:7], 25° C.) was > 48 mg/mL, the solubility ([3]; aqueous with cosolvent or surfactant or cyclodextrin, MeOH:water (v/v) [3:7], 50° C.) was > 86 mg/mL and the solubility ([3]; aqueous with cosolvent or surfactant or cyclodextrin, MeOH:water (v/v) [7:3], 25° C.) was 20 mg/mL (≈ 54.9 mM). For the same compound, the solubility ([3]; organic solvent or mixture, EtOH, 50° C.) was 3 mg/mL (≈ 8.23 mM), the solubility ([3]; organic solvent or mixture, Heptane, 50° C.) was 3 mg/mL (≈ 8.23 mM) and the solubility ([3]; organic solvent or mixture, IPA, 50° C.) was 5 mg/mL (≈ 13.7 mM). For the same compound, the solubility ([3]; organic solvent or mixture, MTBE, 50° C.) was 4 mg/mL (≈ 11 mM), the solubility ([3]; organic solvent or mixture, MeOH, 50° C.) was 4 mg/mL (≈ 11 mM) and the solubility ([3]; Water, 25° C.) was > 48 mg/mL. The solubility ([3]; Water, 50° C.) was > 76 mg/mL, the AUC at 27 day [4] was 5040 ng·h/mL and the mortality (Sprague Dawley rats; 28 days SC, 1.81, 6.33 and 18.1 (later 12.7) mg/kg/day) was “All animals survived the treatment period except for one high dose female”. The injection site lesions (Sprague Dawley rats; 28 days SC, dose relationship to incidence and severity) was “discoloration, scabbing, and swelling was observed in all treatment groups”, the clinical chemistry changes (Sprague Dawley rats; at >6.33 mg/kg) was “mildly lower albumin concentration and A/G ratio, higher globulin concentration and moderately higher triglycerides” and the liver weights (Sprague Dawley rats; both genders) was “dose related increased liver weights in the middle and high dose groups”. For the same compound, the body weight gains (Sprague Dawley rats; high dose) was “reduced”, the NOAEL (Sprague Dawley rats; males) was “could not be clearly established” and the testicular weights (Sprague Dawley rats; males) was “dose related decreased testicular weights in all groups of males”. The “hematology, red cell changes” value (Sprague Dawley rats; middle and high dose levels) was “lower red cell parameters and higher reticulocyte counts”, the coagulation studies (Sprague Dawley rats; rat, in vivo) was “lower APPT in the females at the high dose and higher fibrinogen levels at all doses” and the “hematology, white cell parameters and platelets” value (Sprague Dawley rats; rat, in vivo) was “increased leukocyte, neutrophil, eosinophil and basophil counts and increased platelets”. The “histopathology, injection sites” value (Sprague Dawley rats; rat, in vivo) was “chronic mixed cell inflammation at all doses”, the “histopathology, liver” value (Sprague Dawley rats; rat, in vivo) was “dose related increased hepatocyte vacuolation at all doses” and the “histopathology, testes” value (Sprague Dawley rats; rat, in vivo) was “degeneration and necrosis of the seminiferous tubules in all animals at the middle and high dose and in one animal at the low dose”. For the same compound, the ophthalmological examinations (Sprague Dawley rats; rat, in vivo) was “unremarkable”, the “toxicokinetics, plasma concentrations” value (Sprague Dawley rats; rat, in vivo) was “dose related increases in plasma concentrations” and the liver enzymes (Sprague Dawley rats; some animals at 18.1/12.7 mg/kg) was “elevated liver enzymes”. For the same compound, the gastric emptying (Male Sprague-Dawley rats; 6.33 and 18.1 mg/kg, statistically significant only at 6.33 mg/kg) was “inhibited”, the “dose with no adverse effects on gastric emptying” value (Male Sprague-Dawley rats; [6]) was 1.81 mg/kg and the “dose with no adverse effects on transit time” value (Male Sprague-Dawley rats; [6]) was 6.33 mg/kg. The intestinal transit time (Male Sprague-Dawley rats; only at 18.1 mg/kg) was “increased”.
